Reference: PubChem BioAssay (NCI)
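Method: 48-hour compound exposure of cells in 96-well plates, five concentrations, linear interpolation of endpoints. Definition used: TGI = concentration required for complete inhibition of growth.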

Columns and labels:
Test in all cases: growth of human tumour cells (NCI), 48 h
786-0 renal = system: 786-0 renal
NCI-H522 lung = system: NCI-H522 lung
MCF7 breast = system: MCF7 breast
MDA-N = system: MDA-N
HCT-15 colon = system: HCT-15 colon
RXF 393 renal = system: RXF 393 renal
HCT-116 colon = system: HCT-116 colon
SF-268 CNS = system: SF-268 CNS
OVCAR-5 ovarian = system: OVCAR-5 ovarian
HT29 colon = system: HT29 colon
BT-549 breast = system: BT-549 breast
LOX IMVI melanoma = system: LOX IMVI melanoma
KM12 colon = system: KM12 colon
RPMI-8226 leukemia = system: RPMI-8226 leukemia
M14 melanoma = system: M14 melanoma
CCRF-CEM leukemia = system: CCRF-CEM leukemia
UACC-257 melanoma = system: UACC-257 melanoma
IGROV1 ovarian = system: IGROV1 ovarian
MOLT-4 leukemia = system: MOLT-4 leukemia
MDA-MB-231 breast = system: MDA-MB-231 breast
K-562 leukemia = system: K-562 leukemia
SK-MEL-28 melanoma = system: SK-MEL-28 melanoma
DU-145 prostate = system: DU-145 prostate
NCI-H460 lung = system: NCI-H460 lung
MALME-3M melanoma = system: MALME-3M melanoma
HOP-62 NSCLC = system: HOP-62 NSCLC
A549 NSCLC = system: A549 NSCLC
SF-295 CNS = system: SF-295 CNS
SK-MEL-2 melanoma = system: SK-MEL-2 melanoma
TK-10 renal = system: TK-10 renal
EKVX NSCLC = system: EKVX NSCLC
CAKI-1 renal = system: CAKI-1 renal
PC-3 prostate = system: PC-3 prostate
OVCAR-4 ovarian = system: OVCAR-4 ovarian
HS 578T breast = system: HS 578T breast
SN12C renal = system: SN12C renal
NCI-H23 lung = system: NCI-H23 lung
MDA-MB-435 = system: MDA-MB-435
T-47D breast = system: T-47D breast
HL-60(TB) leukemia = system: HL-60(TB) leukemia
SW-620 colon = system: SW-620 colon
NCI/ADR-RES ovarian = system: NCI/ADR-RES ovarian
OVCAR-8 ovarian = system: OVCAR-8 ovarian
HOP-92 NSCLC = system: HOP-92 NSCLC
SNB-19 CNS = system: SNB-19 CNS
SK-MEL-5 melanoma = system: SK-MEL-5 melanoma
U251 CNS = system: U251 CNS
UO-31 renal = system: UO-31 renal
SK-OV-3 ovarian = system: SK-OV-3 ovarian
OVCAR-3 ovarian = system: OVCAR-3 ovarian
COLO 205 colon = system: COLO 205 colon
UACC-62 melanoma = system: UACC-62 melanoma
HCC-2998 colon = system: HCC-2998 colon
SF-539 CNS = system: SF-539 CNS
ACHN renal = system: ACHN renal
A498 renal = system: A498 renal
SR leukemia = system: SR leukemia
NCI-H226 lung = system: NCI-H226 lung
SNB-75 CNS = system: SNB-75 CNS

Measured: TGI

Oc1ccc(Br)cc1C=NC1CCCCC1
74.2 µM: SK-MEL-2 melanoma
19.5 µM: SN12C renal
> 100 µM: 786-0 renal | NCI-H522 lung | MCF7 breast | MDA-N | HCT-15 colon | RXF 393 renal | SF-268 CNS | OVCAR-5 ovarian | HT29 colon | BT-549 breast | LOX IMVI melanoma | KM12 colon | RPMI-8226 leukemia | M14 melanoma | CCRF-CEM leukemia | UACC-257 melanoma | IGROV1 ovarian | MOLT-4 leukemia | MDA-MB-231 breast | K-562 leukemia | SK-MEL-28 melanoma | DU-145 prostate | NCI-H460 lung | MALME-3M melanoma | HOP-62 NSCLC | A549 NSCLC | SF-295 CNS | TK-10 renal | EKVX NSCLC | CAKI-1 renal | PC-3 prostate | OVCAR-4 ovarian | HS 578T breast | NCI-H23 lung | MDA-MB-435 | SW-620 colon | NCI/ADR-RES ovarian | OVCAR-8 ovarian | HOP-92 NSCLC | SNB-19 CNS | U251 CNS | UO-31 renal | SK-OV-3 ovarian | OVCAR-3 ovarian | COLO 205 colon | UACC-62 melanoma | HCC-2998 colon | SF-539 CNS | ACHN renal | A498 renal
44.5 µM: HL-60(TB) leukemia
75.5 µM: T-47D breast
48.8 µM: HCT-116 colon
43.8 µM: SK-MEL-5 melanoma

Cn1c2ccccc2c2c3c(c4c5ccccc5n(C)c4c21)C(=O)N(Cc1ccccc1)C3=O
51.6 µM: SR leukemia
> 100 µM: 786-0 renal | NCI-H522 lung | MCF7 breast | MDA-N | HCT-15 colon | HCT-116 colon | OVCAR-5 ovarian | HT29 colon | BT-549 breast | LOX IMVI melanoma | KM12 colon | RPMI-8226 leukemia | M14 melanoma | CCRF-CEM leukemia | UACC-257 melanoma | IGROV1 ovarian | MOLT-4 leukemia | MDA-MB-231 breast | K-562 leukemia | SK-MEL-28 melanoma | DU-145 prostate | NCI-H460 lung | MALME-3M melanoma | HOP-62 NSCLC | A549 NSCLC | SF-295 CNS | SK-MEL-2 melanoma | TK-10 renal | EKVX NSCLC | CAKI-1 renal | PC-3 prostate | OVCAR-4 ovarian | HS 578T breast | SN12C renal | NCI-H23 lung | NCI-H226 lung | MDA-MB-435 | T-47D breast | SNB-75 CNS | SW-620 colon | NCI/ADR-RES ovarian | OVCAR-8 ovarian | HOP-92 NSCLC | SNB-19 CNS | SK-MEL-5 melanoma | U251 CNS | UO-31 renal | SK-OV-3 ovarian | COLO 205 colon | UACC-62 melanoma | HCC-2998 colon | SF-539 CNS | ACHN renal | A498 renal

COc1ccc(Cc2ccc3[nH]c(=O)cc(C)c3c2)cc1S(=O)(=O)O
> 100 µM: 786-0 renal | NCI-H522 lung | MCF7 breast | MDA-N | HCT-15 colon | RXF 393 renal | SR leukemia | HCT-116 colon | SF-268 CNS | OVCAR-5 ovarian | HT29 colon | BT-549 breast | LOX IMVI melanoma | KM12 colon | RPMI-8226 leukemia | M14 melanoma | CCRF-CEM leukemia | UACC-257 melanoma | IGROV1 ovarian | MOLT-4 leukemia | MDA-MB-231 breast | K-562 leukemia | SK-MEL-28 melanoma | DU-145 prostate | NCI-H460 lung | MALME-3M melanoma | HOP-62 NSCLC | A549 NSCLC | SF-295 CNS | SK-MEL-2 melanoma | TK-10 renal | EKVX NSCLC | CAKI-1 renal | PC-3 prostate | OVCAR-4 ovarian | HS 578T breast | SN12C renal | NCI-H23 lung | NCI-H226 lung | MDA-MB-435 | T-47D breast | SNB-75 CNS | HL-60(TB) leukemia | SW-620 colon | NCI/ADR-RES ovarian | OVCAR-8 ovarian | HOP-92 NSCLC | SNB-19 CNS | SK-MEL-5 melanoma | U251 CNS | UO-31 renal | SK-OV-3 ovarian | OVCAR-3 ovarian | COLO 205 colon | UACC-62 melanoma | SF-539 CNS | ACHN renal | A498 renal
